In article PMC8232766, “Chemical Composition and Immunomodulatory Activity of Essential Oils from Rhododendron albiflorum” (Molecules, 2021):
Each block holds one molecule with its values, some of them ahead of it.

Key:
[1] = tested on: human neutrophils; details: cited from earlier work; for Inhibition of agonist-induced Ca2+ mobilization in human neutrophils: found previously; for Inhibition of agonist-induced neutrophil Ca2+ mobilization: previous studies
[2] = tested on: HL60 cells; assay: Cytotoxicity assay (CellTiter-Glo) in HL60 cells; format: cell-based, human; details: 30 min, oils up to 25 µg/mL, compounds up to 25 µM
Protocol: Cytotoxicity of essential oils and pure compounds was analyzed in human promyelocytic HL60 cells using a CellTiter-Glo Luminescent Cell Viability Assay Kit (Promega), as described previously.

[3] = target: T1, FPR2-HL60 cells (Homo sapiens, UniProt P25090); assay: Inhibition of WKYMVM-induced Ca2+ influx in FPR2-HL60 cells; format: cell-based; details: pure compounds; 10 min preincubation; induced by 5 nM WKYMVM
T1 construct: expressed in transfected cells
T1 sequence (P25090 1-351): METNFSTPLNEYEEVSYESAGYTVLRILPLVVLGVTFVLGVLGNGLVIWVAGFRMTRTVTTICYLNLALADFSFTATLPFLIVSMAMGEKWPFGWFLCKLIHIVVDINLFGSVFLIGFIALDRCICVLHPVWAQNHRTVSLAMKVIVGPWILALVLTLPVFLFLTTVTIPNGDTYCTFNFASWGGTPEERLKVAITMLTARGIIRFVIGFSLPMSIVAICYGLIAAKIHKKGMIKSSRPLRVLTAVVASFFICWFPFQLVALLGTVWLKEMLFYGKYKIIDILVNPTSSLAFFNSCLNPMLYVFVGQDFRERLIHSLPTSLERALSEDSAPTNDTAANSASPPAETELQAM
Protocol: (§1) Human promyelocytic leukemia HL60 cells stably transfected with FPR1 (FPR1-HL60 cells) or FPR2 (FPR2-HL60 cells) were kindly provided by Dr. Marie-Josephe Rabiet, INSERM, Grenoble, France. These cells were cultured in RPMI 1640 medium containing 10% heat-inactivated fetal calf serum, 10 mM HEPES, 100 μg/mL streptomycin, 100 U/mL penicillin, and G418 (1 mg/mL). G418 was removed before assays were performed.
(§2) Changes in intracellular Ca^2+ concentrations ([Ca^2+]i) in human neutrophils were measured with a FlexStation 3 scanning fluorometer (Molecular Devices), as previously described. To assess the direct effects of test compounds or pure essential oils on Ca^2+ influx, the compounds/oils were added to the wells (final concentration of DMSO was 1%), and changes in fluorescence were monitored (λex = 485 nm, λem = 538 nm) every 5 s for 240 s at room temperature after addition of the test compound. To evaluate inhibitory effects of the compounds on FPR1/FPR2-dependent Ca^2+ influx, the compounds were added to the wells (final concentration of DMSO was 1%) with cells (human neutrophils or FPR1/FPR2 HL60 cells). The samples were preincubated for 10 min, followed by addition of 5 nM fMLF (for human neutrophils or FPR1-HL60 cells) or 5 nM WKYMVM (for FPR2-HL60 cells). The maximum change in fluorescence, expressed in arbitrary units over baseline, was used to determine the agonist response. Responses were normalized to the response induced by 5 nM fMLF or 5 nM WKYMVM, which were assigned as 100%.
(§3) For all Ca^2+ influx experiments, curve fitting (at least five or six points) and calculation of median effective concentration values (EC50 or IC50) were performed by nonlinear regression analysis of the dose–response curves generated using Prism 7 (GraphPad Software, Inc., San Diego, CA, USA).

[4] = tested on: human C20 microglial cells; assay: Inhibition of fMLF-induced Ca2+ influx in C20 microglial cells; format: cell-based; details: 10 min, pure compounds, 10 min incubation, induced by 10 μM fMLF
Protocol: (§4) Human C20 microglial cells were kindly provided by Dr. David Alvarez-Carbonell (Department of Molecular Biology and Microbiology, Case Western Reserve University, Cleveland, OH, USA); these are immortalized primary human microglial cells that maintain characteristics of primary microglial cells. C20 cells were grown at 37 °C and 5% CO2 in DMEM:F12 medium supplemented with 10% FBS, 2.5 mM L-glutamine, 110 mg/L sodium pyruvate, 15 mM HEPES, 100 μg/mL normocin, 100 μg/mL streptomycin, and 100 U/mL penicillin.
(§5) For analysis of Ca^2+ influx in C20 microglial cells, the cells were plated in 96-well black, clear bottom plates at 10^4 cells/well in DMEM/F12 medium containing 10% FBS. The cells were treated with 200 nM PMA for 24 h, and the medium was changed every day for 5 days. On day 5, the cells were loaded with FLIPR Calcium 5 (Molecular Devices) at a volume ratio of 1:1 for 30 min at 37 °C in the dark. The plates were then placed in a FlexStation 3 fluorometer, and basal fluorescence was measured (λex = 485 nm, λem = 538 nm). Essential oils or individual compounds of interest were added manually (final concentration of DMSO was 1%), and fluorescence was monitored for 2 min to assess the direct effects of these treatments on [Ca^2+]i. After a 10 min incubation at 37 °C, the fluorescence baseline was recorded again, and 10 µM fMLF was added to evaluate inhibitory effects on agonist-induced [Ca^2+]i. Responses were normalized to the response induced by 10 µM fMLF.
as §3

[5] = tested on: human neutrophils; assay: Inhibition of fMLF-induced Ca2+ influx in human neutrophils; format: cell-based; details: Homo sapiens, Neutrophil; pure compounds; 10 min preincubation; induced by 5 nM fMLF
Text: (§6) For isolation of human neutrophils, blood was collected from healthy donors in accordance with a protocol approved by the Institutional Review Board at Montana State University (Protocol #MQ041017), as described previously. Isolated neutrophils were washed and resuspended in HBSS^–. Neutrophil preparations were routinely >95% pure and >98% viable. Neutrophils were obtained from multiple different donors (n = 8); however, the cells from different donors were never pooled during experiments.
as §2, §3

[6] = tested on: human neutrophils; assay: Ca2+ influx (direct effect) in human neutrophils; format: cell-based; details: Homo sapiens, Neutrophil; pure compounds; direct effect on [Ca2+]i; mean ± SD of three experiments
Text: as §6, §2, §3

[7] = tested on: human neutrophils; assay: Neutrophil chemotaxis assay (fMLF-induced); format: cell-based; details: Homo sapiens, Neutrophil; pure compounds; chemotaxis induced by 1 nM fMLF
Text: as §6
Human neutrophils were resuspended in HBSS^+ containing 2% (v/v) heat-inactivated fetal bovine serum (2 × 10^6 cells/mL), and chemotaxis was analyzed in 96-well ChemoTx chemotaxis chambers (Neuroprobe, Gaithersburg, MD), as described previously. Curve fitting (at least eight to nine points) and calculation of median effective concentration values (IC50) were performed by nonlinear regression analysis of the dose-response curves generated using GraphPad Prism 8.

[8] = target: T2, MAPKAPK2 (Homo sapiens, UniProt P49137); assay: KINOMEscan kinase Kd determination, MAPKAPK2; format: binding; details: maximum concentration of 33 µM
T2 construct: purchased Eurofins Pharma Discovery, San Diego, CA, USA (KINOMEscan service)
Protocol: (§7) KINOMEscan®® was used to determine the dissociation constant (Kd) of the indicated sesquiterpenes for selected kinases (Eurofins Pharma Discovery, San Diego, CA, USA). […] Assays were performed in duplicate, and the average mean value is shown.

[9] = tested on: human C20 microglial cells; assay: Ca2+ influx (direct effect) in C20 microglial cells; format: cell-based; details: Homo sapiens; pure compounds; direct effect on [Ca2+]i; mean ± SD of three experiments
Protocol: as §4, §5, §3

[10] = target: T3, PIM1 (Homo sapiens, UniProt P11309); assay: KINOMEscan kinase Kd determination, PIM1; format: binding; details: maximum concentration of 33 µM
T3 construct: purchased Eurofins Pharma Discovery, San Diego, CA, USA (KINOMEscan service)
Protocol: as §7

[11] = target: T4, FPR1-HL60 cells (Homo sapiens, UniProt P21462); assay: Inhibition of fMLF-induced Ca2+ influx in FPR1-HL60 cells; format: cell-based; details: pure compounds; 10 min preincubation; induced by 5 nM fMLF
T4 construct: expressed in transfected cells
T4 sequence (P21462 1-350): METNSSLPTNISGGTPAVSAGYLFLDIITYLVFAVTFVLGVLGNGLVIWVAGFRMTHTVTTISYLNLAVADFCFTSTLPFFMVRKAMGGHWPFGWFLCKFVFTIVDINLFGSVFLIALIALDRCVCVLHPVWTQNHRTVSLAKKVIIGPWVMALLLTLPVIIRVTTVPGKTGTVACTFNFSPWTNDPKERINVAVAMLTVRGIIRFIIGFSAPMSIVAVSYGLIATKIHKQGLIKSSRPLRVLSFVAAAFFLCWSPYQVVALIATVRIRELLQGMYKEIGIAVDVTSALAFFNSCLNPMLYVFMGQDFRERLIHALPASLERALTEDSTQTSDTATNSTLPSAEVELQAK
Protocol: as §1, §2, §3

[12] = target: T5, JNK3 (Homo sapiens, UniProt P53779); assay: KINOMEscan kinase Kd determination, JNK3; format: binding; details: maximum concentration of 33 µM
T5 construct: purchased Eurofins Pharma Discovery, San Diego, CA, USA (KINOMEscan service)
Protocol: as §7

[13] = tested on: human neutrophils; design: method as in PMID 27586050, PMID 25959257; details: direct effect; previous studies; cited from earlier work

T5 sequence (P53779 whole entry): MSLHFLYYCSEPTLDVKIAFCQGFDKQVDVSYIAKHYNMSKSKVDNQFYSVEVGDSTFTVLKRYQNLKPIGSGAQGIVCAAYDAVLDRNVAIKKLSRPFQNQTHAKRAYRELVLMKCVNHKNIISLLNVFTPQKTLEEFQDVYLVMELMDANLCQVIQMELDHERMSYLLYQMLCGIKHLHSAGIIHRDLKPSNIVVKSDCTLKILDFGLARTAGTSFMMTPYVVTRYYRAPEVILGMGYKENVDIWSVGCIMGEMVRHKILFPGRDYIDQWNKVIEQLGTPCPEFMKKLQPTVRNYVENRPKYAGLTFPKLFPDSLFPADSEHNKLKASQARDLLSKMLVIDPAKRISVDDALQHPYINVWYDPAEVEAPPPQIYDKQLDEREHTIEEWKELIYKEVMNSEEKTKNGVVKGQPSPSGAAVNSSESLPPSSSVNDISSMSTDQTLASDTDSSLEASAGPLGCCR
T3 sequence (P11309 whole entry): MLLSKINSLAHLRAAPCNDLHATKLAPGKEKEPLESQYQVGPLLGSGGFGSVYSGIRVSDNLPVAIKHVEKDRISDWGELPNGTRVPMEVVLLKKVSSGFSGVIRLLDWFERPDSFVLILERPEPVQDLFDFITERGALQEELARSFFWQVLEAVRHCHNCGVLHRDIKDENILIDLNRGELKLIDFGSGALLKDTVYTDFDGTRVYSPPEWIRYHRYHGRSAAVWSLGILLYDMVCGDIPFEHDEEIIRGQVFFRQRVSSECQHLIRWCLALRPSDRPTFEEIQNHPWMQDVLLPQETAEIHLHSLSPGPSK
T2 sequence (P49137 whole entry): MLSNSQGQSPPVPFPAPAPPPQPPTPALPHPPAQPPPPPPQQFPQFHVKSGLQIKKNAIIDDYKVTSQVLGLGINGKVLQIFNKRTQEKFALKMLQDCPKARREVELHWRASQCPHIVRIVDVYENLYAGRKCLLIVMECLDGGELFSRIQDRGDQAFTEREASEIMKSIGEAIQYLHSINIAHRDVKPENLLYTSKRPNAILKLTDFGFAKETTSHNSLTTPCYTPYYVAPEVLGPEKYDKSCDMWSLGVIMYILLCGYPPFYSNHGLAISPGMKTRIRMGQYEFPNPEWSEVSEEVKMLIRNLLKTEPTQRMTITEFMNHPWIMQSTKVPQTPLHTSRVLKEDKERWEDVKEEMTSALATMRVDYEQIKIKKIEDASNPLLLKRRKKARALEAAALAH

Structure (SMILES): C/C1=C\CC/C(C)=C/CC(C)(C)/C=C/C1 [α-humulene]
- Inhibition of agonist-induced Ca2+ mobilization in human neutrophils [1]: inhibited

- IC50 [3]: 25 ± 7.2 µM
- IC50 [4]: 10.7 ± 2.3 µM
- IC50 [5]: 27.9 ± 8.9 µM
- EC50 [6]: 24 ± 4.6 µM
- IC50 [7]: 8.5 ± 0.6 µM
- Binding affinity (Kd) toward MAPKAPK2 [8]: did not observe any binding activity
- EC50 [9]: 27.7 ± 2.5 µM
- Binding affinity (Kd) toward PIM1 [10]: did not observe any binding activity
- IC50 [11]: 27.7 ± 2.9 µM
- Binding affinity (Kd) toward JNK3 [12]: did not observe any binding activity
Structure (SMILES): CC(C)=C1C/C=C(\C)CC/C=C(\C)CC1=O [Germacrone]
- Cell viability (cytotoxicity), 30 min incubation [2]: minimal effects on cell viability

Structure (SMILES): CC1=CCC2CC1C2(C)C (stereo not drawn) [α-pinene]
- Activation of neutrophil Ca2+ mobilization [13]: no activating effects
- Inhibition of agonist-induced neutrophil Ca2+ mobilization [1]: no inhibitory effect

Structure (SMILES): C=CC(=C)CCC=C(C)C [myrcene]
- Activation of neutrophil Ca2+ mobilization [13]: no activating effects
- Inhibition of agonist-induced neutrophil Ca2+ mobilization [1]: no inhibitory effect

Structure (SMILES): C=C1/C=C/[C@H](C(C)C)CC/C(C)=C/CC1 [germacrene D]
- Inhibition of agonist-induced Ca2+ mobilization in human neutrophils [1]: inhibited

- IC50 [3]: 16.7 ± 5.5 µM
- IC50 [4]: 30.7 ± 4.4 µM
- IC50 [5]: 11 ± 3.8 µM
- EC50 [6]: 37.6 ± 8.4 µM
- IC50 [7]: 37.9 ± 2.2 µM
- Binding affinity (Kd) toward MAPKAPK2 [8]: did not observe any binding activity
- EC50 [9]: 25.9 ± 5.2 µM
- Binding affinity (Kd) toward PIM1 [10]: did not observe any binding activity
- IC50 [11]: 21.8 ± 6.1 µM
- Binding affinity (Kd) toward JNK3 [12]: did not observe any binding activity
Structure (SMILES): C=C[C@]1(C)Cc2occ(C)c2C[C@H]1C(=C)C [Curzerene]
- Cell viability (cytotoxicity), 30 min incubation [2]: minimal effects on cell viability

Structure (SMILES): C=C1CCC2CC1C2(C)C (stereo not drawn) [β-pinene]
- Activation of neutrophil Ca2+ mobilization [13]: no activating effects
- Inhibition of agonist-induced neutrophil Ca2+ mobilization [1]: no inhibitory effect

Structure (SMILES): C=C(C)[C@H]1CC=C(C)CC1 [limonene]
- Activation of neutrophil Ca2+ mobilization [13]: no activating effects
- Inhibition of agonist-induced neutrophil Ca2+ mobilization [1]: no inhibitory effect

Structure (SMILES): CC1=CCC(O)(C(C)C)CC1 (centres unmarked) [terpinen-4-ol]
- Activation of neutrophil Ca2+ mobilization [13]: no activating effects
- Inhibition of agonist-induced neutrophil Ca2+ mobilization [1]: no inhibitory effect

Structure (SMILES): C=C1CC/C=C(\C)CC[C@@H]2[C@@H]1CC2(C)C [β-caryophyllene]
- Inhibition of agonist-induced Ca2+ mobilization in human neutrophils [1]: inhibited
